Measurements taken from US10143737B2, “Method for the vaccination against HIV” (Bionor Immuno AS, priority 2014, dated 2018).
Bridges are numbered along the chain shown (N, C = ends). Roman numbers before positions name the chains, in order. Where no end group is shown, it is not given here.

How the values were obtained:
[1] = system: Anti-C5/gp41 sera from BI400-B immunized rabbits; test: Competitive ELISA for rabbit sera after immunization with BI400-B; type: binding; conditions: for Inhibition of binding of rabbit sera to C5/gp41 (015/201): competitor preincubated with serum, 10-1000 μM
Procedure: 50-100 μl of a mixture of BI400-015 and -201 (pre-incubated in Coating buffer—0.05M Na2CO3 pH9.6; denoted CB—in cold at 16 μg/ml for each peptide 1-3 days prior to coating) or just CB (background control) was used for coating wells in microtiter plates at 4° C. overnight. Plates were then washed 3x with washing buffer (PBS+1% v/v Triton-X100; denoted WB), followed by 2 h blocking at room temperature (RT) with 200 μl/well of blocking buffer (PBS+1% w/v BSA). Plates were then washed 3x with WB, followed by 1 h incubation at 37° C. with 60-100 μl/well of added rabbit serum samples (diluted 1:10-1:250 final concentration) preincubated together (4° C. overnight) with serial dilutions (ranging from 10-1000 μM final concentration) of 400-SEQ.B, BI400-015, BI400-201, BI400-204d, recombinant gp41 (Shin-Won Scientific, SWO 102 gp41), BI301-23 (irrelevant protein; control), no peptide (i.e. PBS; control), LTNP-sera pools (diluted 1:10 final concentration), or Blood donor sera-pools (diluted 1:10 final concentration; control). Plates were then washed 6x with WB, followed by 1 h incubation at RT with 70 μl/well of Alkaline Phosphatase-conjugated Goat-anti-Rabbit-Ig (6 μg/ml; Dako D0487). Plates were then washed 6x with WB, followed by 10-60 min incubation at RT with 100 μl/well of 0.3% w/v of Phenoftalein monophosphate (Sigma P-5758). Plates were finally quenched by adding 100 μl/well of Quench solution (0.1M TRIS+0.1M EDTA+0.5M NaOH+0.01% w/v NaN3; pH14), followed by ELISA reader (ASYS UVM 340) at 550 nm.

[2] = system: latently infected cell lines and primary T cells; conditions: cited from earlier work
[3] = system: pooled human sera from HIV chronically infected individuals, LTNP and non-infected blood donors; test: Seroreactivity of pooled human sera to peptide-coated magnetic particles (general ELISA principle); type: binding; conditions: peptide 600 μg/ml alone or 300 μg/ml each in combination; positivity determined visually
Procedure: Seroreactivity to SEQ ID NO: 1 alone or in combination with SEQ ID NOs. 6 (with the sequence […]), 8 and 9 was determined according to a general ELISA principle either using magnetic particles as a solid support or attachment of peptides to a 96-well tray.
In the system described below, peptide was coated on to magnetic particles using generally accepted techniques. 300 μg was coated onto particles for all peptides with the exception of SEQ1 where 600 μg was used. SEQ ID NO: 1 (from C5) and SEQ ID NO: 6, 8 and 9 (from gp41) were preincubated overnight at 4 degrees C. to allow interactions to form between between C5 and gp41 sequences respectively and all combined. Sera were then incubated with the peptide coated beads according to established protocols. Visualisation of antibody binding to C5 peptides was achieved using protein G that can bind immunoglobulins from different species coupled to alkaline phosphatase. The positive control was commercially available serum from a sheep immunised with the C5 derived sequence […] (SEQ ID NO: 1).
Pooled sera from 25 LTNP were tested for seroreactivity to SEQ ID NO: 1 alone and SEQ ID NO: 1 when in combination with SEQ ID NOs: 6 ([…]), 8 and 9 respectively and all combined. Pooled sera were also tested from 12 HIV positive, chronically infected individuals and 20 sera from blood donors.

[4] = system: C5/gp41 (015/201); test: Rabbit immunization with BI400-B vaccine, serum ELISA; type: in vivo, New Zealand White female rabbits; conditions: 500 μg intradermally weeks 0, 2, 6 in Freund's adjuvant; in the presence of PBS
Procedure: New Zealand White female rabbits (n=3) were immunized intradermally at weeks 0, 2 & 6 with 1 ml of BI400-B vaccine consisting of 500 μg BI400-B in 50% V/V Freund's adjuvant (i.e. Complete Freund's adjuvant used for priming, followed by boostings with Incomplete Freund's adjuvant). Individual blood serum was isolated for ELISA.
50-100 μl of a mixture of BI400-015 and -201 (pre-incubated in Coating buffer—0.05M Na2CO3 pH9.6; denoted CB—in cold at 16 μg/ml for each peptide 1-3 days prior to coating) or just CB (background control) was used for coating wells in microtiter plates at 4° C. overnight. Plates were then washed 3x with washing buffer (PBS+1% v/v Triton-X100; denoted WB), followed by 2 h blocking at room temperature (RT) with 200 μl/well of blocking buffer (PBS+1% w/v BSA). […] Plates were finally quenched by adding 100 μl/well of Quench solution (0.1M TRIS+0.1M EDTA+0.5M NaOH+0.01% w/v NaN3; pH14), followed by ELISA reader (ASYS UVM 340) at 550 nm.

[5] = system: HIV-specific T-cells; conditions: dendritic cells presenting Gag- or Nef-specific peptides; cited from earlier work

Question: For GGAIVNGSLADDDIVI [SEQ ID NO: 37], which “Inhibition of binding of rabbit sera to C5/gp41 (015/201)” value (“Inhibition of binding of rabbit sera” for short) [1] is on record?
Answer: Its value is “could be inhibited”.

Question: Which “Activation of HIV-1 expression” value [2] does the source give for `C/C=C1\NC(=O)[C@H]2CSSCC/C=C/[C@H](CC(=O)N[C@H](C(C)C)C(=O)N2)OC(=O)[C@H](C(C)C)NC1=O` [romidepsin, (1S,4S,7Z,10S,16E,21R)-7-ethylidene-4,21-bis(1-methylethyl)-2-oxa-12,13-dithia-5,8,20,23-tetraazabicyclo[8.7.6] tricos-16-ene-3,6,9,19,22-pentone] here?
Answer: The value was “potently activates HIV-1 expression”.

Question: Which “Inhibition of binding of rabbit sera” value [1] does the source give for “DRPEGIEEEGGERDR (Glu can be Gly; Gly can be Arg; Arg can be Gln; Asp can be Gly; Arg can be Lys) [SEQ ID NO: 6]” here?
Answer: Its value is “could be inhibited”.

Question: For APTKAKRRVVQREKR [SEQ ID NO: 1], which “Seroreactivity, Blood-donors pool” value [3] is on record?
Answer: Its value is “=”.

Question: What about the “Inhibition of binding of rabbit sera” value [1] of the same compound?
Answer: Its value is “could be inhibited”.

Question: For “BI400-B: SEQ ID NO: 38 and SEQ ID NO: 39 linked via Cys and Lys residues (chain 1 GAKRRVVGGCGGAKRRVVQREKRAGEREKRA; chain 2 GKGGIEEEGGRDRDRGGEQDRDR; bridge I:10-II:2 (inferred))”, which “Binding of sera from immunized rabbits to C5/gp41 peptides” value [4] is on record?
Answer: Its value is “bound to peptides corresponding to C5/gp41 (015/201)”.

Question: And the “Inhibition of binding of rabbit sera” value [1]?
Answer: The value was “could be inhibited”.

Question: And the “Competition of anti-C5/gp41 rabbit sera by human sera pools” value ([1]; sera pools diluted 1:10)?
Answer: The value was “competitively inhibited by LTNP-sera pools, but not with BD control sera”.

Question: With `Nc1cccc2c1C(=O)N(C1CCC(=O)NC1=O)C2=O` (stereo not shown) [pomalidomide] as the compound, how does the “Function of T-cells after in vitro stimulation in presence of IMiDs” value [5] read?
Answer: Its value is “a number of improvements in the function of the T-cells”.

Question: With `Nc1cccc2c1CN(C1CCC(=O)NC1=O)C2=O` (stereo not shown) [Lenalidomide] as the compound, how does the “Function of T-cells after in vitro stimulation in presence of IMiDs” value [5] read?
Answer: Its value is “a number of improvements in the function of the T-cells”.
